In one assay the target is full-length human RORγt (Homo sapiens (Human), UniProt P51449). Put plainly: RORγt (full-length human) reporter assay, conditions A or B. Particulars: for inhibition at 3 µM: 3 μM compound concentration (*); for IC50: HEK293T cells, read-out: RORγt (FL) Reporter Assay A or B, IC50; for inhibition at 0.67 µM: read-out: RORγt (FL) Reporter Assay A or B, % inhibition, 0.67 μM compound concentration (****); for inhibition at 6 µM: read-out: RORγt (FL) Reporter Assay A or B, % inhibition @ 6 μM, 6 μM compound concentration. The format is cell-based. Put shortly: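 HEK293T cells transiently co-transfected (PEI) with GAL4-DBD–RORγt, GAL4-firefly luciferase and CMV-Renilla reporters; condition A 35,000 cells/well, 170.5 ng DNA/well; condition B 8750 cells/well, 42.6 ng DNA/well.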

The target in assay [1] is human RORγt ligand binding domain (RORγt LBD) (Homo sapiens (Human), UniProt P51449). Put plainly: RORγt ThermoFluor assay. An outline of the steps: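 Thermal shift of His-tagged human RORγt LBD (0.065 mg/mL) with 60 μM 1,8-ANS in 100 mM Hepes pH 7.0, 10 mM NaCl, 2.5 mM GSH, 0.002% Tween-20, heated at 1° C./min. Compounds in 1:2 series from a 10 mM DMSO stock; KD estimated from ΔTm using protein unfolding thermodynamics.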

The mark [2] stands for this setting: read-out: RORγt (FL) Reporter Assay A or B, % inhibition.

Sequence of full-length human RORγt (P51449 other isoform, or with tags, fused parts or gaps): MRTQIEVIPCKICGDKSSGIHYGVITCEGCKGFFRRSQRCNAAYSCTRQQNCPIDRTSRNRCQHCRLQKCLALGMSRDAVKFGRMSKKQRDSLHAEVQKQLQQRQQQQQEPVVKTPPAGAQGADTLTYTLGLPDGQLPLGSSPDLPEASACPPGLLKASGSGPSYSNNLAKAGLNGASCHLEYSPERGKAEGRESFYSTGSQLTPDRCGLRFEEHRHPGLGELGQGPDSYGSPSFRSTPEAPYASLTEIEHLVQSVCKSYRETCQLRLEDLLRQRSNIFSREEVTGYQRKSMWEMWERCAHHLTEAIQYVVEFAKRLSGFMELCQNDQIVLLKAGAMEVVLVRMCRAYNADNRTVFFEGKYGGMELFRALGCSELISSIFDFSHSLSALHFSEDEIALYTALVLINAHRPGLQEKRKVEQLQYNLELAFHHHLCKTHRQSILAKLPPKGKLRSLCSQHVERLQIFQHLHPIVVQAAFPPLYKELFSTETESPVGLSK
Sequence of human RORγt ligand binding domain (RORγt LBD) (P51449 other isoform, or with tags, fused parts or gaps): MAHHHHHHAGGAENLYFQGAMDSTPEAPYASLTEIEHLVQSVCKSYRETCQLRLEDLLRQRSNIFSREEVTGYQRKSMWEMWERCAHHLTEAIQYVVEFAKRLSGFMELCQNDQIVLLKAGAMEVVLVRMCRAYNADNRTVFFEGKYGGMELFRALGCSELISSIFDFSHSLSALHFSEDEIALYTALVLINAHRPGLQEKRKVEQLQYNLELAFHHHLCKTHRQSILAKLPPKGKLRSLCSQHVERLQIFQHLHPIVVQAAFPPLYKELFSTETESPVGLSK

In the case of `CCc1nc(C(=O)NC[C@]2(O)CC[C@@H](S(C)(=O)=O)C[C@H]2O)c(Cl)n1-c1ncc(CC(C(F)(F)F)C(F)(F)F)cc1OC(F)F` (stereo in doubt) [Example 67, 5-Chloro-1-(3-(difluoromethoxy)-5-(3,3,3-trifluoro-2-(trifluoromethyl)propyl)pyridin-2-yl)-N-(((1R*,2R*,4R*)-1,2-dihydroxy-4-(methylsulfonyl)cyclohexyl)methyl)-2-ethyl-1H-imidazole-4-carboxamide], on full-length human RORγt (setting [2]), the inhibition at 3 µM stood at 103%. The IC50 on full-length human RORγt was found to be 170 nM. Moreover, in assay [1], the Kd is 53 nM.

In the case of `CCc1nc(C(=O)NC[C@]2(O)CC[C@@H](S(C)(=O)=O)CC2)c(Cl)n1-c1ncc(C[C@@H](C)C(F)(F)F)cc1OC(F)F` (single isomer, unassigned) [Example 79, 5-Chloro-1-(3-(difluoromethoxy)-5-((R*)-3,3,3-trifluoro-2-methylpropyl)pyridin-2-yl)-2-ethyl-N-(((1s,4S)-1-hydroxy-4-(methylsulfonyl)cyclohexyl)methyl)-1H-imidazole-4-carboxamide], on full-length human RORγt (setting [2]), the inhibition at 3 µM stood at 84%. Also, the half-inhibitory concentration (IC50) at full-length human RORγt was 220 nM. Further, the Kd in assay [1] was found to be 26 nM.

Turning to `CCc1nc(C(=O)NC[C@H]2CC[C@H](S(C)(=O)=O)CC2)cn1-c1ccc(C[C@H](C)C(F)(F)F)cc1OC` (single isomer, unassigned) [Example 20, 2-Ethyl-1-(2-methoxy-4-((S*)-3,3,3-trifluoro-2-methylpropyl)phenyl)-N-(((1r,4S)-4-(methylsulfonyl)cyclohexyl)methyl)-1H-imidazole-4-carboxamide], on full-length human RORγt (2 μM compound concentration (**), read-out: RORγt (FL) Reporter Assay A or B, % inhibition), the inhibition at 2 µM worked out at 94%. Besides, the IC50 at full-length human RORγt worked out at 170 nM. This molecule had a Kd in assay [1] of 21 nM.

Consider `CCc1nc(C(=O)NC[C@H]2CC[C@H](S(C)(=O)=O)CC2)c(Cl)n1-c1c(F)cc(C[C@@H](C)C(F)(F)F)cc1F` (single isomer, unassigned) [Example 87, 5-Chloro-1-(2,6-difluoro-4-((R*)-3,3,3-trifluoro-2-methylpropyl)phenyl)-2-ethyl-N-(((1r,4R)-4-(methylsulfonyl)cyclohexyl)methyl)-1H-imidazole-4-carboxamide], for which, on full-length human RORγt, the IC50 was determined as 18 nM and the inhibition at 0.67 µM came to 66%. Further, binding in assay [1] was characterised by a dissociation constant (Kd) of 3.8 nM.

Regarding `CCc1nc(C(=O)NC[C@]2(O)CC[C@@H](S(C)(=O)=O)CC2)cn1-c1c(F)cc(CC(C)C)cc1F` [Example 81, 1-(2,6-Difluoro-4-isobutylphenyl)-2-ethyl-N-(((1s,4s)-1-hydroxy-4-(methylsulfonyl)cyclohexyl)methyl)-1H-imidazole-4-carboxamide], on full-length human RORγt, the concentration for half-maximal inhibition (IC50) was determined as 1200 nM and the inhibition at 6 µM was determined as 27%. The molecule also yielded a Kd in assay [1] of 260 nM.

For the molecule `CCc1nc(C(=O)NC[C@H]2CC[C@H](S(C)(=O)=O)CC2)c(Cl)n1-c1c(F)cc(C[C@H](C)C(F)(F)F)cc1F` (single isomer, unassigned) [Example 86, 5-Chloro-1-(2,6-difluoro-4-((S*)-3,3,3-trifluoro-2-methylpropyl)phenyl)-2-ethyl-N-(((1r,4S)-4-(methylsulfonyl)cyclohexyl)methyl)-1H-imidazole-4-carboxamide], at full-length human RORγt, the IC50 was determined as 23 nM and the inhibition at 0.67 µM was found to be 68%. Binding in assay [1] was put at a Kd of 5.3 nM.

On to `CCc1nc(C(=O)NC[C@H]2CC[C@H](S(C)(=O)=O)CC2)c(C#N)n1-c1cnc(CCC(F)(F)F)cc1OC` [Example 117, 5-Cyano-2-ethyl-1-(4-methoxy-6-(3,3,3-trifluoropropyl)pyridin-3-yl)-N-(((1r,4r)-4-(methylsulfonyl)cyclohexyl)methyl)-1H-imidazole-4-carboxamide], for which, at full-length human RORγt, the concentration for half-maximal inhibition (IC50) amounted to 1500 nM and the inhibition at 6 µM was 88%. The molecule also came in with a Kd in assay [1] of 560 nM.

The values are drawn from patent US11345666B2, “Phenyl and pyridinyl substituted imidazoles as modulators of RORγT” (Janssen Pharmaceutica NV, priority 2018, dated 2022).
